Results reported in ChEMBL document CHEMBL5137038, “Novel quinoline-based derivatives: A new class of PDE4B inhibitors for adjuvant-induced arthritis” (Eur J Med Chem, 2022).

How the values were obtained:
[1] = test system: RAW264.7; assay: Inhibition of LPS induced NO production in mouse RAW264.7 cells at 30 uM preincubated for 1 hr followed by LPS addition and measured after 24 hrs by Griess reagent based assay relative to control; format: functional; conditions: time 25 hrs
[2] = biological target: 3',5'-cyclic-AMP phosphodiesterase 4B (Homo sapiens, UniProt Q07343); assay: Inhibition of PDE4B (unknown origin) using […] as substrate incubated for 1 hr by PDElight HTS cAMP phosphodiesterase assay
3',5'-cyclic-AMP phosphodiesterase 4B, sequence (Q07343 whole entry): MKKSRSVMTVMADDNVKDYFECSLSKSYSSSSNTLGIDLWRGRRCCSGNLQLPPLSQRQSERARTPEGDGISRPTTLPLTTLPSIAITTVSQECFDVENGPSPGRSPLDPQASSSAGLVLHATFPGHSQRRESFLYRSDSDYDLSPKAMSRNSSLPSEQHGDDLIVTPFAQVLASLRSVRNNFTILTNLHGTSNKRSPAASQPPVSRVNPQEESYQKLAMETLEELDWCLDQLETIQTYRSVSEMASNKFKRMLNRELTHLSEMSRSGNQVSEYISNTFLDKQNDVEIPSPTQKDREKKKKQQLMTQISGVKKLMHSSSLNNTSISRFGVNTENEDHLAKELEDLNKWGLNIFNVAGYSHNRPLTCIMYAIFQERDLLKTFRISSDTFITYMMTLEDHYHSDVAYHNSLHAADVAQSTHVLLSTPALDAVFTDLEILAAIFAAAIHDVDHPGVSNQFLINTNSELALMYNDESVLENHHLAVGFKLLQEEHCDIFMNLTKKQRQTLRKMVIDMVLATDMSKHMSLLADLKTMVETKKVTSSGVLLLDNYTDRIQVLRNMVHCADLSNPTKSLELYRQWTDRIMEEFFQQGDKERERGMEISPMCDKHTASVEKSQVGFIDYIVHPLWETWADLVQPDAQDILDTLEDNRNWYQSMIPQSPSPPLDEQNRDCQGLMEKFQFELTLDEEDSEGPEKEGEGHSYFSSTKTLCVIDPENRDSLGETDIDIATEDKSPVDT

[3] = test system: RAW264.7; assay: Inhibition of LPS induced NO production in mouse RAW264.7 cells preincubated for 1 hr followed by LPS addition and measured after 24 hrs by Griess reagent based assay; format: functional, cell-based

| SMILES | inhibition at 30 µM [1] [%] | also measured |
| --- | --- | --- |
| CC(C)(C)c1ccc(S(=O)(=O)Nc2cccc(NS(=O)(=O)c3cccc4cccnc34)c2)cc1 | 39.3 | – |
| CC(C)c1ccc(S(=O)(=O)Nc2cccc(NS(=O)(=O)c3cccc4cccnc34)c2)cc1 | 41.5 | – |
| O=S(=O)(Nc1cccc(NS(=O)(=O)c2cccc3cccnc23)c1)c1ccc(F)cc1 | 19 | – |
| O=S(=O)(Nc1cccc(NS(=O)(=O)c2cccc3cccnc23)c1)c1c(Cl)cccc1Cl | 24.7 | – |
| COc1ccc(S(=O)(=O)Nc2cccc(NS(=O)(=O)c3cccc4cccnc34)c2)cc1OC | 32.3 | – |
| CC(=O)Nc1ccc(S(=O)(=O)Nc2cccc(NS(=O)(=O)c3cccc4cccnc34)c2)cc1 | 7.74 | – |
| O=S(=O)(Nc1cccc(NS(=O)(=O)c2cccc3cccnc23)c1)c1ccccc1Br | 23.6 | – |
| O=S(=O)(Nc1cccc(NS(=O)(=O)c2cccc3cccnc23)c1)c1c(F)cccc1F | 23.6 | – |
| O=S(=O)(Nc1cccc(NS(=O)(=O)c2cccc3cccnc23)c1)c1cccc(Br)c1 | 31.1 | – |
| O=S(=O)(Nc1cccc(NS(=O)(=O)c2cccc3cccnc23)c1)c1ccccc1 | 23.8 | – |
| N#Cc1ccc(S(=O)(=O)Nc2cccc(NS(=O)(=O)c3cccc4cccnc34)c2)cc1 | 25.2 | – |
| O=S(=O)(Nc1cccc(NS(=O)(=O)c2cccc3cccnc23)c1)c1ccccc1OC(F)(F)F | 13.2 | – |
| O=S(=O)(Nc1cccc(NS(=O)(=O)c2cccc3cccnc23)c1)c1ccccc1C(F)(F)F | 22 | – |
| O=S(=O)(Nc1cccc(NS(=O)(=O)c2cccc3cccnc23)c1)c1cccc(F)c1 | 17.8 | – |
| O=S(=O)(Nc1cccc(NS(=O)(=O)c2cccc3cccnc23)c1)c1ccc(OC(F)(F)F)cc1 | 31.6 | – |
| O=S(=O)(Nc1cccc(NS(=O)(=O)c2cccc3cccnc23)c1)c1cc(Cl)cc(Cl)c1 | 29 | – |
| O=S(=O)(Nc1cccc(NS(=O)(=O)c2cccc3cccnc23)c1)c1ccc(Cl)cc1 | 6.7 | – |
| O=S(=O)(Nc1cccc(NS(=O)(=O)c2cccc3cccnc23)c1)c1ccc(Br)cc1 | 20.2 | – |
| CC(C)c1cc(C(C)C)c(S(=O)(=O)Nc2cccc(NS(=O)(=O)c3cccc4cccnc34)c2)c(C(C)C)c1 | – | IC50 [2]: 0.94 µM |
| COc1ccc(Br)cc1S(=O)(=O)Nc1cccc(NS(=O)(=O)c2cccc3cccnc23)c1 | 16.3 | – |
| COc1ccc(S(=O)(=O)Nc2cccc(NS(=O)(=O)c3cccc4cccnc34)c2)c(OC)c1 | 12.8 | – |
| O=[N+]([O-])c1cccc(S(=O)(=O)Nc2cccc(NS(=O)(=O)c3cccc4cccnc34)c2)c1 | 28 | – |
| O=S(=O)(Nc1cccc(NS(=O)(=O)c2cccc3cccnc23)c1)c1cccc(C(F)(F)F)c1 | 23.9 | – |
| O=S(=O)(Nc1cccc(NS(=O)(=O)c2cccc3cccnc23)c1)c1ccccc1Cl | 12.1 | – |
| COc1ccc2c(c1)c(CC(=O)O)c(C)n2C(=O)c1ccc(Cl)cc1 [INDOMETHACIN] | 42.5 | IC50 [3]: 34.3 µM |
| O=S(=O)(Nc1cccc(NS(=O)(=O)c2cccc3cccnc23)c1)c1ccc(C(F)(F)F)cc1 | 40.6 | – |
| Cc1ccc(S(=O)(=O)Nc2cccc(NS(=O)(=O)c3cccc4cccnc34)c2)cc1 | 11.4 | – |
| O=S(=O)(Nc1cccc(NS(=O)(=O)c2cccc3cccnc23)c1)c1ccc(I)cc1 | 39.5 | – |
| O=S(=O)(Nc1cccc(NS(=O)(=O)c2cccc3cccnc23)c1)c1ccccc1F | 30.2 | – |
